Data taken from patent publication US11446299B2, “Carbazole EHop-016 derivatives as anticancer and anti-migratory agents” (UNIVERSITY OF PUERTO RICO, priority 2017, dated 2022).
Entries after “also recorded” stand apart in the source; their conditions may differ.

Columns and labels:
[1] = test system: Akt; test: Akt phosphorylation by western blot; assay type: cell-based, human; details: 24 h
Protocol: FIG. 16 (A-D). Inhibition of pAKT by HV-107 and HV-118. FIG. 16 A, C. MDA-MB-231 and FIG. 16 B, D. MDA-MB-435 human metastatic breast cancer cells were treated for 24 h with 0, 250, 500 or 1000 nM HV-107, 100 or 200 nM HV-118. After treatment, total protein was extracted, and equal amounts of proteins were western blotted for total and phosphorylated Akt (pAkt). Positive bands were quantified using image J. N=4-6; error bars represent t SEM; * p≤0.05.
Subsequently, the effects of HV-107 and HV-118 were evaluated in cell survival and cell migration, known Rac-regulated cell functions relevant for cancer progression. The effects of HV-107 and HV-118 on cancer cell survival were determined by measuring the levels of active caspase 3 in MDA-MB-231 and MDA-MB-435 metastatic breast cancer cells after treatment with HV-107 at 500 and 1000 nM, or HV-118 at 100 and 200 nM for 48-72 h. After 48 h, HV-107 caused a significant 1.4-1.5 fold increase in caspase 3 activity in MDA-MB-231 (at 500 and 1000 nM) and MDA-MB-435 (at 1000 nM) cells. […] The effects of both compounds were also examined in the activity of Akt, an important kinase that promotes survival signaling, is frequently hyperactivated in malignant cancers, and can be regulated by Rac. Because Akt is activated by phosphorylation events, the effects of HV-107 and HV-118 were analyzed in Akt phosphorylation by western blot (FIG. 16 (A-D)).

[2] = test system: MDA-MB-435 metastatic breast cancer cells; test: Cell viability, CellTiter 96 AQueous One Solution Cell Proliferation Assay; assay type: cell-based, human; details: HV-107 24 or 48 h, HV-118 48 h
Protocol: (§1) FIG. 7. Effect of HV-107 on cell viability. Cells were treated with vehicle control (0.5% DMSO) or varying concentrations of HV-107 (250-6000 nM) for 48 h. Cell viability was measured using the CellTiter 96® AQueous One Solution Cell Proliferation Assay from Promega, as per manufacturer's instruction. Relative cell viability is presented for non-cancerous mammary epithelial cells (MCF10A) or metastatic breast cancer cells MDA-MB-231 or MDA-MB-435. N=3-4, each with three technical replicates; Error bars represent ±SEM; * p≤0.05.
(§2) FIG. 9. Effect of HV-118 on cell viability. Cells were treated with vehicle control (0.5% DMSO) or varying concentrations of HV-118 (10-500 nM) for 48 h. Cell viability was measured using the CellTiter 96® AQueous One Solution Cell Proliferation Assay from Promega, as per manufacturer's instruction. Relative cell viability is presented for human non-cancerous mammary epithelial cells (MCF10A) or human metastatic breast cancer cells MDA-MB-231 or MDA-MB-435. N=3, each with three technical replicates; error bars represent ±SEM; * p≤0.05.
(§3) Cells were treated with ehicle control (0.5% DMSO) or varying concentrations of HV-107 (250-8000 nM) for 24 or 48 h. Cell viability was measured using the CellTiter 96® AQueous One Solution Cell Proliferation Assay from Promega, as per manufacturer's instruction. Relative cell viability is presented for non-cancerous mammary epithelial cells MCF10A (FIG. 7) or metastatic breast cancer cells MDA-MB-231 or MDA-MB-435. N=3, each with three technical replicates; Error bars represent ±SEM; * p≤0.05.
as §2, with “Cells” for “FIG. 9. Effect of HV-118 on cell viability. Cells”, “MCF10A (FIG. 9)” for “(MCF10A)”

[3] = test system: non-cancerous mammary epithelial cells MCF10A; test: as above; assay type: cell-based, human; details: for toxicity / effect on viability of non-cancerous mammary epithelial cells, in words: MCF10A, at the concentrations tested
Protocol: as §1, §2, §3
as §2, with “Cells” for “FIG. 9. Effect of HV-118 on cell viability. Cells”, “MCF10A (FIG. 9)” for “(MCF10A)”

[4] = test system: MDA-MB-231 and MDA-MB435 metastatic breast cancer cell lines; test: Wound healing assay of HV-107 and HV-118; assay type: cell-based; details: Homo sapiens, 24 h, read-out: inhibition of cell migration
Protocol: FIG. 17 (A-B). Effect of HV-107 and HV-118 on cell migration. Wounds were created on confluent monolayers of MDA-MB-231 or MDA-MB-435 human metastatic breast cancer cells. Immediately after, cells were treated for 24 h with FIG. 17A. 0, 1000, or 2000 nM of HV-107; and FIG. 17B. 0, 100, or 200 nM HV-118. The distance traveled by HV-107 and HV-118 treated cells that migrated to close the wound was quantified relative to the distance traveled by control-treated cells. N=4-7; error bars represent ±SEM; * p≤0.05.
Finally, wound healing assays were performed to assess the effects of HV-107 and HV-118 on metastatic breast cancer cell migration.

| SMILES | inhibition of Akt phosphorylation ([1]; both MDA-MB-231 and MDA-MB-435, 100 and 200 nM) | concentration at which viability is significantly inhibited [2] [nM] | toxicity / effect on viability of non-cancerous mammary epithelial cells, in words [3] | inhibition at 0.1 µM ([4]; 100 nM) [%] | inhibition at 0.2 µM ([4]; 200 nM) [%] | inhibition at 1 µM ([1]; Homo sapiens, MDA-MB-435, 1000 nM) [%] | inhibition of Akt phosphorylation ([1]; MDA-MB-231, 250-1000 nM) | toxicity / effect on viability of non-cancerous mammary epithelial cells, in words ([3]; listed as HV-107) | toxicity to non-cancerous mammary epithelial cells, in words ([3]; at concentrations ≥1 μM) | inhibition at 2 µM ([4]; 2000 nM) [%] |
| --- | --- | --- | --- | --- | --- | --- | --- | --- | --- | --- |
| CCn1c2ccccc2c2cc(Nc3cc(C)nc(Cl)n3)ccc21 [HV-118, (2-Chloro-6-methyl-pyrimidin-4-yl)-(9-ethyl-9H-carbazol-3-yl)-amine] | 40-60% | ≥ 50 | minimal effects; also recorded: minimal or no inhibition; also recorded: minimal toxicity | ~60 | ~80 |  |  |  |  |  |
| CCn1c2ccccc2c2cc(C(=O)Nc3cccnc3N3CCOCC3)ccc21 [Compound 11b, 9-Ethyl-9H-carbazole-3-carboxylic Acid (2-morpholin-4-yl-pyridin-3-yl)-amide] |  | ≥ 500 |  |  |  | 25 | 50-60% | minimal toxicity; also recorded: minimal or no inhibition | not toxic | 30 to 50 |
